Data reported in US11065275B2, “Cross-linking agents and associated methods” (University of Utah Research Foundation, priority 2016, dated 2021).
Where two headings read alike, the source gives them in different places.

Experiments:
[1] = system: cornea of New Zealand white rabbits; settings: 0.0025 mg/ml once or three times per day, 0.025 mg/ml once per day; weekly for 5 weeks; mean K and at 3 mm
Description: Copper sulfate (CuSO4) at 0.0025 mg/ml was administered to New Zealand white rabbits at a dose of once per day and three times per day. Additionally, a high concentration sample of 0.025 mg/ml was administered to New Zealand with rabbits once per day during the treatment period. Three different controls were administered either no drops, BSS, or artificial tears. Each of the 6 groups included 6 test subjects each. Topography images were taken before treatment and weekly for 5 weeks. Diopter measurements were the mean K values and at 3 mm. These values were compared to diopter measurements in laser cross-linked corneas after 1 month and 1 year.

rabbits = settings: 0.0025 mg/ml TID or QD
Description: Copper sulfate (CuSO4) solution was prepared at a concentration of 0.0025 mg/ml and administered three times a day (TID) or once a day (QD) to rabbits. An anterior segment evaluation was performed with slit-lamp biomicroscopy and Heidelberg Spectralis anterior segment optical coherence tomography (AS-OCT). Two rabbits (n=4 eyes) were sacrificed at each of day 1, week 1, week 4, and week 6 for copper levels in eye tissues and compared to control (no drops) rabbits. Aqueous humor, vitreous, retina, cornea, lens, and blood samples were analyzed for copper ions using inductively coupled plasma mass spectrometry (ICP-MS).
Rabbits (n=2) were sacrificed after 42 days by intravenous injection of 0.3 ml/kg euthanasia solution and the eyes were enucleated for histological evaluations and reading for signs of inflammation, tissue damage, scarring and fibrosis. The anterior section of the eyes were fixed in 10% formaldehyde-glutaraldehyde solution, dehydrated in a graded series of alcohol, embedded in paraffin, and sectioned with a microtome. The sections were stained with appropriate staining (hematoxylin and eosin and Masson Trichrome).

lysyl oxidase (LOX) = settings: 0.0016 mg/mL CuSO4 in BSS vs BSS control
Description: As a parallel assay, we added 500 uM aminopropionitrile (BAPN) which can diminish LOX activity completely. The fluorescence of oxidized Amplex red was recorded every 10 minutes using fluorescence plate reader.

Human Keratoconus Cornea = settings: corneas treated 1 week with 0.0016 mg/ml CuSO4 vs untreated, HPLC
Description: Each Human Keratoconus Cornea was bisected. One half was treated with 0.0016 mg/ml CuSo4 in Optisol solution for 1 week and other half was left untreated. After one week each cornea was kept in negative 80° C. for future analysis.
The cornea samples were washed with PBS pH 7.4 and powdered in liquid nitrogen and pulverized with a Freezer Mill. Cornea samples were demineralized with 0.5 M EDTA in 0.05 M Tris buffer, pH 7.4, for 48 h at 4° C. The insoluble fraction was washed twice with distilled water by centrifugation at 5000 g at […] for 20 min and lyophilized. The lyophilized sample was hydrolyzed with constantly boiling redistilled 6 N HCl in vacuo for 24 h at 110° C. The hydrolysate was neutralized with 2.5 N NaOH and dissolved in distilled water. Analyses were performed for Lysinonorleucine (LNL) and Histidinohydroxylysinonorleucine (HHL) separately by HPLC.
Amino acid analysis is an important application area in protein chemistry and food analysis. Many different applications exist in this field. Automated pre-column derivatization followed by reverse phase LC has become a useful procedure for efficient analysis, since it is an easy and simple to use technique. An Agilent 1290 Infinity LC System was used with automated pre-column derivatization for fast and sensitive analysis of Lysinonorleucine (LNL). The column used for this method is Agilent ZORBAX Eclipse Plus RRHD C18 (3.0 mm×50 mm, 1.8 μm) and Mobile phase consisted of Solvent A: 10 mM disodium phosphate+10 mM sodium tetraborate pH 8.2 and Solvent B: ACN/MeOH/H2O (45:45:10)
To […] of the protein hydrolysate sample (less than 3 mM as the total amino acid concentration), 50 μl of 1.5 mM Ne-methyl-L-lysine hydrochlo ide (Mly) in 0.26 M borate buffer, pH 9.5, and 50 μl of acetone were added in a 1.5-ml reaction vial. Then 25 μl of FMOC-Cl reagent (6 mM FMOC-Cl in acetone) was added and the mixture was allowed to react for 2 min at room temperature. The reaction mixture was extracted twice with […] of pentane to remove excess FMOC-Cl reagent. The aqueous phase was subjected to chromatography.
Cornea cross-linking is tissue specific. The predominant cross-links generated in the human cornea are lysinonorleucine (LNL). LNL are the building blocks for subsequent multivalent cross-links such as the histidinyl-hydroxylysinonorleucine (HHL). Normal and keratoconic human corneas were treated for 1 week with 0.0016 mg/ml CuSO4. Then, an HPLC analysis was performed to measure levels of LNL (FIGS. 2A-2C) and HHL (FIGS. 3A-3C).

[2] = system: human cadaver corneas and rabbit corneas
Description: Cornea radial strain measurements were performed on human cadaver corneas and on rabbit corneas. Human cadaver corneas (n=2 pairs) were cultured as previously mentioned in Example 1. The treated group was immersed in 0.0016 mg/ml CuSO4 for 2 weeks. The samples also contained a small portion of sclera at both ends. Mineral oil was applied on the surface of the sclera-cornea-sclera strip to minimize tissue dehydration. Rabbit corneas were divided into 4 groups. Two groups were treatment groups receiving either CuSO4 0.0025 mg/ml three times per day or CuSO4 0.0025 mg/ml once per day. Two groups served as control receiving only BSS.
The sample was coupled between a motor and a transducer that applied a controlled pressure from 5-30 mmHg and measured the resultant radial strain. The sample length between the two gripping jaws was approximately 10 mm. Sample geometric information, including width and thickness, was input into the Rheometrics System Analyzer (RSA) control panel. Sample thickness was measured by an ultrasound pachymeter (DGH 550 Pa-chette2; DGH Technology, Exton, Pa.).

O=S(=O)([O-])[O-].[Cu+2] [CuSO4, copper (II) sulfate]
decrease in diopter measurements vs control groups [1]: greater decrease | corneal haze (rabbits): no observed corneal haze | effect on electroretinography (ERG) measurements (rabbits): no effect | toxicity in dissected eye tissues (rabbits; histology after 6 weeks): no observed toxicity | lox enzyme activity (lysyl oxidase (LOX); keratoconus corneal fibroblast cells): dramatically increased | lox enzyme activity (lysyl oxidase (LOX); normal corneal fibroblast cells): dramatically increased | HHL (histidinyl-hydroxylysinonorleucine) cross-link levels (Human Keratoconus Cornea): HHL cross-links are also observed | LNL (lysinonorleucine) cross-link levels (Human Keratoconus Cornea): LNL cross-links were observed | HHL (histidinyl-hydroxylysinonorleucine) cross-link levels (Human Keratoconus Cornea; listed as copper): significant increase | LNL (lysinonorleucine) cross-link levels (Human Keratoconus Cornea; listed as copper): significant increase | corneal stiffness ([2]; after copper sulfate treatment vs untreated (FIG. 4)): marked increase | average peak radial strain induced by ocular pulse, treated vs untreated corneas ([2]; at 20 mmHg): about 1.5 times lower | corneal biomechanics ([2]; compared with laser cross-linking (FIG. 5)): comparable to that seen with laser cross-linking | increase in corneal strength ([2]; from radial strain at 20 mmHg, treated vs untreated): ~50%
